Reference: US20030206968A1, “Fungicidal mixtures” (priority 1999, published 2003)

Experiments:
Format in all cases: in vivo
Blumeria graminis [1] = test: Greenhouse, Blumeria graminis on wheat, 2 days curative; settings: Example 27
Method: (§1) The trials are carried out under greenhouse (Examples 1 to 32) or field conditions (Examples 33 to 40) in residual or curative applications. The fungicides are applied in single treatments, or in a combination comprising an azolopyrimidine of formula I and a compound selected from the classes (A), (B) and (C) as defined above. The compounds are applied in form of an aqueous spray mix obtained from a concentrated formulation or the technical material.
(§2) 1. Seed is planted in 6 cm diameter plastic pots and maintained in the greenhouse.
(§3) 2. When the primary leaf is fully expanded in the case of cereals or several leaves are present in the case of dicots, formulated test compounds are sprayed with a three nozzle overhead fungicide sprayer to near run-off. Alternatively, a single nozzle overhead track sprayer is used for application of the compounds to cereals at a rate of 200 l/ha. Plants are then allowed to air-dry.
(§4) 3. Inoculation precedes treatment in the case of curative evaluations and follows treatment in case of residual evaluations. For inoculation of powdery mildew disease, plants are set up on greenhouse benches with bottom watering mats and inoculated by dusting them with conidia from infected plants. Between inoculation and treatment for curative evaluations and between treatment and inoculation for residual evaluations, plants are maintained in the greenhouse with bottom watering.
(§5) 4. Disease on the foliage as percent leaf area with disease symptoms/signs is evaluated about 7 days after inoculation. In the case of wheat, the tips and bases of the leaves are excluded from the evaluation. [formula]
(§6) 1. Technical compounds are formulated in a solvent/surfactant system consisting of 5% acetone and 0.05% Tween 20 in deionized water. Compounds are dissolved in acetone prior to addition of the water; the Tween 20 can be added through either the acetone or the water. Dilutions are made using the solvent/surfactant system. Formulated compounds are prepared using deionized water.
(§7) 2. Two kinds of controls are included: Plants treated with the solvent/surfactant solution and inoculated (Solvent Blank). Untreated plants which are inoculated (Inoculated Control).
(§8) Assessments of the diseases took place at the indicated day after the application of the compounds. Per cent infected leaf area infected was evaluated. The efficacy of the compounds/compounds mixtures to control the diseases was calculated by using the formula given above under item 4: […]
(§9) Synergy was calculated using the % disease control values of specific treatments for the two COLBY formula given hereinabove
Fungicidal efficacy of the mixture of (S)-Azolopyrimidine C in admixture with Azoxystrobin or Trifloxystrobin (2 days curative) against Blumeria graminis on wheat. The tank mixes were obtained from technical material of (S)-Azolopyrimidine C and Azoxystrobin or Trifloxystrobin.

Puccinia recondita [2] = test: Greenhouse, Puccinia recondita on wheat, 2 days curative; settings: Example 28
Method: as §1, §2, §3, §4
(§10) For inoculation of non-powdery mildew diseases, an aqueous spore suspension of the pathogen is applied to the plant and the plants are kept 1-2 days in a moist infection chamber before being returned to the greenhouse where they are maintained by bottom watering.
as §5, §6, §7, §8, §9
Fungicidal efficacy of the mixture of (S)-Azolopyrimidine C in admixture with Azoxystrobin or Trifloxystrobin (2 days curative) against Puccinia recondita on wheat. The tank mixes were obtained from technical material of (S)-Azolopyrimidine C and Azoxystrobin or Trifloxystrobin.

Puccinia recondita [3] = test: Greenhouse, Puccinia recondita on wheat, 4 days residual; settings: Example 31
Method: as §1, §2, §3, §4, §10, §5, §6, §7, §8, §9
Fungicidal efficacy of the mixture of (S)-Azolopyrimidine C in admixture with Azoxystrobin or Trifloxystrobin (4 days residual) against Puccinia recondita on wheat. The tank mixes were obtained from technical material of (S)-Azolopyrimidine C and Azoxystrobin or Trifloxystrobin.

Blumeria graminis [4] = test: Greenhouse, Blumeria graminis on wheat, 4 days residual; settings: Example 30
Method: as §1, §2, §3, §4, §5, §6, §7, §8, §9
Fungicidal efficacy of the mixture of (S)-Azolopyrimidine C in admixture with Azoxystrobin or Trifloxystrobin (4 days residual) against Blumeria graminis on wheat. The tank mixes were obtained from technical material of (S)-Azolopyrimidine C and Azoxystrobin or Trifloxystrobin.

Blumeria graminis [5] = test: Greenhouse, Blumeria graminis on barley, 2 days curative; settings: Example 29
Method: as §1, §2, §3, §4, §5, §6, §7, §8, §9
Fungicidal efficacy of the mixture of (S)-Azolopyrimidine C in admixture with Fenhexamid (2 days curative) against Blumeria graminis on barley. The tank mixes were obtained from technical material of (S)-Azolopyrimidine C and Fenhexamid.
Fungicidal efficacy of the mixture of (S)-Azolopyrimidine C in admixture with Azoxystrobin or Trifloxystrobin (2 days curative) against Blumeria graminis on barley. The tank mixes were obtained from technical material of (S)-Azolopyrimidine C and Azoxystrobin or Trifloxystrobin.

Blumeria graminis [6] = test: Greenhouse, Blumeria graminis on barley, 4 days residual; settings: Example 32
Method: as §1, §2, §3, §4, §5, §6, §7, §8, §9
Fungicidal efficacy of the mixture of (S)-Azolopyrimidine C in admixture with Azoxystrobin (4 days residual) against Blumeria graminis on barley. The tank mixes were obtained from technical material of (S)-Azolopyrimidine C and Azoxystrobin.

Blumeria graminis [7] = test: Field test, Blumeria graminis on wheat; settings: 17 days after application
Method: as §1
For the field study formulated Azolopyrimidine A, B or C and formulated compounds from the classes (A), (B) and (C) were used.
as §8, §9
The compounds are applied according to good agricultural practice in the form of an aqueous spray mix obtained from a concentrated formulation or the technical material at a rate of 400 l/ha. The disease control is evaluated according to the formula given for the greenhouse tests.
Fungicidal efficacy of the mixture of (S)-Azolopyrimidine C+cyproconazole in the field against Blumeria graminis on wheat 17 days after application The tank mix was obtained from a SC formulation containing 100 g (S)-Azolopyrimidine C per liter and an EC formulation containing 60 g cyproconazole per liter.
Fungicidal efficacy of the mixture of (S)-Azolopyrimidine C+azoxystrobin in the field against Blumeria graminis on wheat 17 days after application The tank mix was obtained from a SC formulation containing 100 g (S)-Azolopyrimidine C per liter and a SC formulation containing 250 g azoxystrobin per kg.
Fungicidal efficacy of the mixture of Azolopyrimidine A and different cereal fungicides in the field against Blumeria graminis on wheat 15 days after application The tank mix was obtained from an SC formulation containing 100 g Azolopyrimidine A per liter and commercially available formulations of metconazole, epoxiconazole or kresoxim methyl, respectively.

Alternaria solani = test: Greenhouse, Alternaria solani on tomatoes, 1 day residual; settings: Example 25; rate 16 g/ha
Method: as §1, §2, §3, §4, §10, §5, §6, §7, §8, §9
Fungicidal efficacy of the mixture of Azolopyrimidine C and different fungicides (1 day residual) against Alternaria solani on tomatoes The tank mix was obtained from an SC formulation containing 100 g Azolopyrimidine A per liter and WP formulations of dithianon (750 g/kg), captan (500 g/kg), cyprodinil (750 g/kg), mancozeb (800 g/kg), or a SC formulation of chlorothalonil (500 g/l), or a FS formulation of fenpiclonil (400 g/l), spectively.

Leptosphaeria nodorum = test: Greenhouse, Leptosphaeria nodorum on wheat, 3 day residual; settings: Example 1
Method: as §1, §2, §3, §4, §10, §5, §6, §7, §8, §9
Fungicidal efficacy of the mixture of Azolopyrimidine A+fenpropimorph (3 day residual) against Leptosphaeria nodorum on wheat The tank mix was obtained from technical material of Azolopyrimidine A and an EC formulation containing 750 g fenpropimorph per liter.
Fungicidal efficacy of the mixture of Azolopyrimidine A+tebuconazole (3 day residual) against Leptosphaeria nodorum on wheat The tank mix was obtained from technical material of Azolopyrimidine A and an EC formulation containing 250 g tebuconazole per liter.

Erysiphe cichoracearum = test: Greenhouse, Erysiphe cichoracearum on cucumbers, 1 day residual; settings: Example 23
Method: as §1, §2, §3, §4, §5, §6, §7, §8, §9
Fungicidal efficacy of the mixture of Azolopyrimidine C+triforine (1 day residual) against Erysiphe cichoracearum on cucumbers
the tank mix was obtained from a SC formulation containing 100 g of Azolopyrimidine C per liter and an DC formulation containing and 190 g of triforine per liter.
Fungicidal efficacy of the mixture of Azolopyrimidine C+cyprodinil (1 day residual) against Erysiphe cichoracearum on cucumbers The tank mix was obtained from a SC formulation containing 100 g of Azolopyrimidine C per liter and a WG formulation containing and 750 g of cyprodinil per kg.

Compound: CO/C=C(/C(=O)OC)c1ccccc1Oc1cc(Oc2ccccc2C#N)ncn1 [Azoxystrobin]
- Observed Efficacy (Blumeria graminis [1]; dose rate 1.6 ppm): 0%
- Observed Efficacy (Blumeria graminis [1]; dose rate 3.1 ppm): 2%
- Observed Efficacy (Blumeria graminis [1]; dose rate 6.3 ppm): 21%
- Observed Efficacy (Blumeria graminis [1]; dose rate 12.5 ppm): 28%
- Observed Efficacy (Blumeria graminis [1]; dose rate 25 ppm): 48%
- Observed Efficacy (Blumeria graminis [1]; dose rate 50 ppm): 61%
- Observed Efficacy (Puccinia recondita [2]; dose rate 1.6 ppm): 0%
- Observed Efficacy (Puccinia recondita [2]; dose rate 3.1 ppm): 25%
- Observed Efficacy (Puccinia recondita [2]; dose rate 6.3 ppm): 48%
- Observed Efficacy (Puccinia recondita [2]; dose rate 12.5 ppm): 85%
- Observed Efficacy (Puccinia recondita [2]; dose rate 25 ppm): 95%
- Observed Efficacy (Puccinia recondita [3]; dose rate 3.1 ppm): 0%
- Observed Efficacy (Puccinia recondita [3]; dose rate 6.3 ppm): 0%
- Observed Efficacy (Puccinia recondita [3]; dose rate 12.5 ppm): 0%
- Observed Efficacy (Puccinia recondita [3]; dose rate 25 ppm): 0%
- Observed Efficacy (Puccinia recondita [3]; dose rate 50 ppm): 8%
- Observed Efficacy (Blumeria graminis [4]; dose rate 3.1 ppm): 0%
- Observed Efficacy (Blumeria graminis [4]; dose rate 6.3 ppm): 0%
- Observed Efficacy (Blumeria graminis [4]; dose rate 12.5 ppm): 7%
- Observed Efficacy (Blumeria graminis [4]; dose rate 25 ppm): 9%
- Observed Efficacy (Blumeria graminis [4]; dose rate 50 ppm): 9%
- Observed Efficacy (Blumeria graminis [5]; dose rate 1.6 ppm): 0%
- Observed Efficacy (Blumeria graminis [5]; dose rate 3.1 ppm): 10%
- Observed Efficacy (Blumeria graminis [5]; dose rate 6.3 ppm): 21%
- Observed Efficacy (Blumeria graminis [5]; dose rate 12.5 ppm): 49%
- Observed Efficacy (Blumeria graminis [5]; dose rate 25 ppm): 73%
- Observed Efficacy (Blumeria graminis [5]; dose rate 50 ppm): 87%
- Observed Efficacy (Blumeria graminis [6]; dose rate 1.6 ppm): 0%
- Observed Efficacy (Blumeria graminis [6]; dose rate 3.1 ppm): 3%
- Observed Efficacy (Blumeria graminis [6]; dose rate 6.3 ppm): 3%
- Observed Efficacy (Blumeria graminis [6]; dose rate 12.5 ppm): 3%
- Observed Efficacy (Blumeria graminis [6]; dose rate 25 ppm): 2%
- Observed Efficacy (Blumeria graminis [6]; dose rate 50 ppm): 9%
- Observed Efficacy (Blumeria graminis [7]; azoxystrobin 75 g/ha alone): 49

Compound: O=C1C2CC=CCC2C(=O)N1SC(Cl)(Cl)Cl (stereo not drawn) [captan]
- Observed Efficacy (Alternaria solani): 18%

Compound: N#Cc1c(Cl)c(Cl)c(Cl)c(C#N)c1Cl [chlorothalonil]
- Observed Efficacy (Alternaria solani): 13%

Compound: CC(C1CC1)C(O)(Cn1cncn1)c1ccc(Cl)cc1 (stereo not drawn) [cyproconazole]
- Observed Efficacy (Blumeria graminis [7]; cyproconazole 15 g/ha alone): 86
- Observed Efficacy (Blumeria graminis [7]; cyproconazole 30 g/ha alone): 82

Compound: N#Cc1sc2c(=O)c3ccccc3c(=O)c=2sc1C#N [dithianon]
- Observed Efficacy (Alternaria solani): 50%

Compound: N#Cc1c[nH]cc1-c1cccc(Cl)c1Cl [fenpiclonil]
- Observed Efficacy (Alternaria solani): 76%

Compound: CC(Cc1ccc(C(C)(C)C)cc1)CN1C[C@@H](C)O[C@@H](C)C1 (stereo partly drawn) [fenpropimorph]
- Observed Efficacy (Leptosphaeria nodorum; dose rate 0.5 ppm): 19%
- Observed Efficacy (Leptosphaeria nodorum; dose rate 5 ppm): 15%

Compound: O=CNC(N1CCN(C(NC=O)C(Cl)(Cl)Cl)CC1)C(Cl)(Cl)Cl (stereo not drawn) [triforine]
- Observed Efficacy (Erysiphe cichoracearum; dose rate 4 ppm): 0%
- Observed Efficacy (Erysiphe cichoracearum; dose rate 16 ppm): 15%

Compound: Trifloxystrobin
- Observed Efficacy (Blumeria graminis [1]; dose rate 1.6 ppm): 34%
- Observed Efficacy (Blumeria graminis [1]; dose rate 3.1 ppm): 55%
- Observed Efficacy (Blumeria graminis [1]; dose rate 6.3 ppm): 78%
- Observed Efficacy (Blumeria graminis [1]; dose rate 12.5 ppm): 89%
- Observed Efficacy (Blumeria graminis [1]; dose rate 25 ppm): 98%
- Observed Efficacy (Blumeria graminis [1]; dose rate 50 ppm): 99%
- Observed Efficacy (Puccinia recondita [2]; dose rate 1.6 ppm): 0%
- Observed Efficacy (Puccinia recondita [2]; dose rate 3.1 ppm): 0%
- Observed Efficacy (Puccinia recondita [2]; dose rate 6.3 ppm): 0%
- Observed Efficacy (Puccinia recondita [2]; dose rate 12.5 ppm): 0%
- Observed Efficacy (Puccinia recondita [2]; dose rate 25 ppm): 0%
- Observed Efficacy (Puccinia recondita [3]; dose rate 3.1 ppm): 0%
- Observed Efficacy (Puccinia recondita [3]; dose rate 6.3 ppm): 0%
- Observed Efficacy (Puccinia recondita [3]; dose rate 12.5 ppm): 0%
- Observed Efficacy (Puccinia recondita [3]; dose rate 25 ppm): 0%
- Observed Efficacy (Puccinia recondita [3]; dose rate 50 ppm): 0%
- Observed Efficacy (Blumeria graminis [4]; dose rate 3.1 ppm): 0%
- Observed Efficacy (Blumeria graminis [4]; dose rate 6.3 ppm): 0%
- Observed Efficacy (Blumeria graminis [4]; dose rate 12.5 ppm): 0%
- Observed Efficacy (Blumeria graminis [4]; dose rate 25 ppm): 0%
- Observed Efficacy (Blumeria graminis [4]; dose rate 50 ppm): 14%
- Observed Efficacy (Blumeria graminis [5]; dose rate 1.6 ppm): 22%
- Observed Efficacy (Blumeria graminis [5]; dose rate 3.1 ppm): 36%
- Observed Efficacy (Blumeria graminis [5]; dose rate 6.3 ppm): 59%
- Observed Efficacy (Blumeria graminis [5]; dose rate 12.5 ppm): 74%
- Observed Efficacy (Blumeria graminis [5]; dose rate 25 ppm): 89%
- Observed Efficacy (Blumeria graminis [5]; dose rate 50 ppm): 96%

Compound: mancozeb
- Observed Efficacy (Alternaria solani): 27%
